Assay results from publication PMC6946680, “Modulation of brain cation-Cl^− cotransport via the SPAK kinase inhibitor ZT-1a” (Nature Communications, 2020).
Values joined by “and” are separate entries in the source; they are usually repeats but may differ in a detail not shown here. Equal entries are not always repeated.

What was measured:
GCK = experiment: Kinase profiling panel; format: biochemical
Protocol: (§1) Supplementary Table 2. ZT-1a kinase profiling data6.
(§2) ZT-1a was tested at 10 and 1 µM against a panel of 140 recombinant kinases in an enzymatic
(§3) activity-based assay performed by the International Centre for Kinase Profiling in the MRC
(§4) Protein Phosphorylation and Ubiquitylation Unit. Values represent % residual kinase activity

PLK1 = experiment: Kinase profiling panel; format: biochemical
Protocol: as §1, §2, §3, §4

CK2 = experiment: Kinase profiling panel; format: biochemical
Protocol: as §1, §2, §3, §4

MAPKAP-K2 = experiment: Kinase profiling panel; format: biochemical
Protocol: as §1, §2, §3, §4

SmMLCK = experiment: Kinase profiling panel; format: biochemical
Protocol: as §1, §2, §3, §4

HIPK3 = experiment: Kinase profiling panel; format: biochemical
Protocol: as §1, §2, §3, §4

NEK2a = experiment: Kinase profiling panel; format: biochemical
Protocol: as §1, §2, §3, §4

p38d MAPK = experiment: Kinase profiling panel; format: biochemical
Protocol: as §1, §2, §3, §4

HIPK1 = experiment: Kinase profiling panel; format: biochemical
Protocol: as §1, §2, §3, §4

MST2 = experiment: Kinase profiling panel; format: biochemical
Protocol: as §1, §2, §3, §4

EPH-B4 = experiment: Kinase profiling panel; format: biochemical
Protocol: as §1, §2, §3, §4

MKK2 = experiment: Kinase profiling panel; format: biochemical
Protocol: as §1, §2, §3, §4

CHK2 = experiment: Kinase profiling panel; format: biochemical
Protocol: as §1, §2, §3, §4

EPH-B1 = experiment: Kinase profiling panel; format: biochemical
Protocol: as §1, §2, §3, §4

PKCγ = experiment: Kinase profiling panel; format: biochemical
Protocol: as §1, §2, §3, §4

RSK1 = experiment: Kinase profiling panel; format: biochemical
Protocol: as §1, §2, §3, §4

PAK2 = experiment: Kinase profiling panel; format: biochemical
Protocol: as §1, §2, §3, §4

PAK5 = experiment: Kinase profiling panel; format: biochemical
Protocol: as §1, §2, §3, §4

MLK3 = experiment: Kinase profiling panel; format: biochemical
Protocol: as §1, §2, §3, §4

BRK = experiment: Kinase profiling panel; format: biochemical
Protocol: as §1, §2, §3, §4

TTK = experiment: Kinase profiling panel; format: biochemical
Protocol: as §1, §2, §3, §4

SGK1 = experiment: Kinase profiling panel; format: biochemical
Protocol: as §1, §2, §3, §4

[1] = system: KCC3 Thr991Ala/Thr1048Ala; experiment: 86Rb+ uptake assay for KCC3 double mutant in HEK-293 cells; format: cell-based, human; details: for 86Rb+ uptake: Fig 3a, T991A/T1048A + 1a (10 µM), replicates
Protocol: ^86Rb^+ flux assays have been utilized extensively as a reliable measurement of cation chloride cotransporter activity[51]–[54].
Thirty-six hours post transfection, cells were exposed for 30 min to either control isotonic conditions or hypotonic low [Cl^−] conditions (to activate the SPAK/OSR1 pathway), and then treated for an additional 30 min in the same conditions with the indicated ZT-1a concentrations in the presence of 1 mM ouabain and 0.1 mM bumetanide. Ten-minute ^86Rb^+ uptake values were quantified by scintillation counting, normalized per mg protein for each condition, and plotted for both isotonic and hypotonic conditions. ***p < 0.001; **p < 0.01; *p < 0.05; ns—nonsignificant [by one-way ANOVA with post hoc testing (n = 6, error bars represent the mean ± SEM)]. b ^86Rb^+ uptake assays in the presence of ZT-1a measure transport activity of NKCC1. […] Thirty-six hours post transfection, cells were exposed for 30 min to either control isotonic conditions or hypotonic low [Cl^−] conditions (to activate the SPAK/OSR1 pathway), and then treated in the same conditions for an additional 30 min with 10 µM ZT-1a or 0.1 mM bumetanide (Bum) in the presence of 1 mM ouabain (Na^+/K^+-ATPase inhibitor). ^86Rb^+ uptake was allowed to proceed for 10 min and was then quantified by scintillation counting. ^86Rb^+ uptake CPMs were normalized per mg protein and plotted for both isotonic and hypotonic conditions. […] Ten-minute ^86Rb^+ uptake values were quantified by scintillation counting, normalized per mg protein for each condition, and plotted for both isotonic and hypotonic conditions. ***p < 0.001; **p < 0.01; *p < 0.05; ns—nonsignificant [by one-way ANOVA with post hoc testing (n = 6, error bars represent the mean ± SEM)].
This stimulating medium was then removed and replaced with isotonic medium containing inhibitors plus 2 µCi/ml ^86Rb^+. […] Washed cells were lysed in 300 µl of ice-cold lysis buffer and ^86Rb^+ uptake was quantitated by liquid scintillation counting (PerkinElmer).

pKCC3 pThr991/pThr1048 = experiment: Immunoblot of pKCC3 in ischemic mouse brain membrane fractions; details: for KCC3 / Na-K pumb / pThr991 / KCC3 / pThr991 / Na-K pumb / pThr1048 / KCC3 / pThr1048 / Na-K pumb: Fig 8, individual samples
pERK1/2 = experiment: Immunoblot of phospho-ERK1/2 in ischemic mouse brain; format: in vivo; details: for pERK/Na K pump (fold veh-CL): Membrane
Text: Cytosol and crude membrane protein
Expressions of Na+-K+ ATPase
respectively. d Densitometric analyses of immunoblots.

Cc1cc(C(C#N)c2ccc(Cl)cc2)c(Cl)cc1NC(=O)c1cc(Cl)ccc1O (stereo not drawn) [ZT-1a, 5-chloro-N-(5-chloro-4-((4-chlorophenyl)(cyano)methyl)-2-methylphenyl)-2-hydroxybenzamide]
% residual kinase activity (GCK; 1 µM): 112±4% | % residual kinase activity (GCK; 10 µM): 97±3% | % residual kinase activity (PLK1; 1 µM): 72±1% | % residual kinase activity (PLK1; 10 µM): 93±21% | % residual kinase activity (CK2; 1 µM): 72±15% | % residual kinase activity (CK2; 10 µM): 59±16% | % residual kinase activity (MAPKAP-K2; 1 µM): 91±13% | % residual kinase activity (MAPKAP-K2; 10 µM): 13±7% | % residual kinase activity (SmMLCK; 1 µM): 99±3% | % residual kinase activity (SmMLCK; 10 µM): 98±9% | % residual kinase activity (HIPK3; 1 µM): 84±3% | % residual kinase activity (HIPK3; 10 µM): 76±2% | % residual kinase activity (NEK2a; 1 µM): 85±12% | % residual kinase activity (NEK2a; 10 µM): 91±6% | % residual kinase activity (p38d MAPK; 1 µM): 95±1% | % residual kinase activity (p38d MAPK; 10 µM): 112±2% | % residual kinase activity (HIPK1; 1 µM): 98±13% | % residual kinase activity (HIPK1; 10 µM): 90±4% | % residual kinase activity (MST2; 1 µM): 115±4% | % residual kinase activity (MST2; 10 µM): 113±2% | % residual kinase activity (EPH-B4; 1 µM): 100±8% | % residual kinase activity (EPH-B4; 10 µM): 151±33% | % residual kinase activity (MKK2; 1 µM): 126±2% | % residual kinase activity (MKK2; 10 µM): 81±27% | % residual kinase activity (CHK2; 1 µM): 106±1% | % residual kinase activity (CHK2; 10 µM): 68±6% | % residual kinase activity (EPH-B1; 1 µM): 77±15% | % residual kinase activity (EPH-B1; 10 µM): 80±19% | % residual kinase activity (PKCγ; 1 µM): 133±11% | % residual kinase activity (PKCγ; 10 µM): 120±8% | % residual kinase activity (RSK1; 1 µM): 95±2% | % residual kinase activity (RSK1; 10 µM): 87±4% | % residual kinase activity (PAK2; 1 µM): 110±4% | % residual kinase activity (PAK2; 10 µM): 93±8% | % residual kinase activity (PAK5; 1 µM): 93±26% | % residual kinase activity (PAK5; 10 µM): 93±4% | % residual kinase activity (MLK3; 1 µM): 119±11% | % residual kinase activity (MLK3; 10 µM): 114±3% | % residual kinase activity (BRK; 1 µM): 116±12% | % residual kinase activity (BRK; 10 µM): 103±2% | % residual kinase activity (TTK; 1 µM): 104±2% | % residual kinase activity (TTK; 10 µM): 91±5% | % residual kinase activity (SGK1; 1 µM): 73±14% | % residual kinase activity (SGK1; 10 µM): 58±5% | activity of KCC3 double mutant Thr991Ala/Thr1048Ala ([1]; 86Rb+ flux, 10 µM ZT-1a): failed to increase activity | 86Rb+ uptake ([1]; Hypotonic low Cl-): 20886.3 and 22005.7 and 21031.7 and 19121.7 and 18316.2 and 19001.7 | 86Rb+ uptake ([1]; Isotonic control): 27112.3 and 26091.1 and 31837.7 and 30881.4 and 28673.6 and 29768.2 | KCC3 / Na-K pumb (pKCC3 pThr991/pThr1048; CL hemisphere): 1.336 and 1.197 and 1.267 and 1.158 and 1.265 and 1.361 | pThr991 / KCC3 (pKCC3 pThr991/pThr1048; CL hemisphere): 1.218 and 1.115 and 1.236 and 1.366 and 1.064 and 1.128 | pThr991 / Na-K pumb (pKCC3 pThr991/pThr1048; CL hemisphere): 1.627 and 1.334 and 1.565 and 1.429 and 1.509 and 1.618 | pThr1048 / KCC3 (pKCC3 pThr991/pThr1048; CL hemisphere): 1.138 and 0.971 and 0.993 and 1.217 and 1.116 and 0.937 | pThr1048 / Na-K pumb (pKCC3 pThr991/pThr1048; CL hemisphere): 1.52 and 1.162 and 1.258 and 1.37 and 1.22 and 1.531 | KCC3 / Na-K pumb (pKCC3 pThr991/pThr1048; IL hemisphere): 1.177 and 1.337 and 1.176 and 1.207 and 1.288 and 1.143 | pThr991 / KCC3 (pKCC3 pThr991/pThr1048; IL hemisphere): 0.804 and 0.867 and 0.759 and 0.638 and 0.69 and 0.743 | pThr991 / Na-K pumb (pKCC3 pThr991/pThr1048; IL hemisphere): 0.946 and 0.897 and 1.023 and 0.942 and 0.889 and 0.849 | pThr1048 / KCC3 (pKCC3 pThr991/pThr1048; IL hemisphere): 0.646 and 0.719 and 0.618 and 0.673 and 0.737 and 0.686 | pThr1048 / Na-K pumb (pKCC3 pThr991/pThr1048; IL hemisphere): 0.76 and 0.987 and 0.854 and 0.792 and 0.949 and 0.785 | reduction of ischemia-induced elevation of pKCC3 (pKCC3 pThr991/pThr1048; compared with vehicle-control mice): 30% | ischemia-induced increase of pKCC3 (pKCC3 pThr991/pThr1048; post-stroke ZT-1a 5 mg/kg, 24 h reperfusion): prevented | pERK/GAPDH (fold veh-CL) (pERK1/2; Cytosol, CL, Fig S4d): 1.33 fold veh-CL and 1.29 fold veh-CL and 0.75 fold veh-CL | pERK/Na K pump (fold veh-CL) (pERK1/2; CL, Fig S4d): 1.45 fold veh-CL and 1.52 fold veh-CL and 1.76 fold veh-CL | pERK/Na K pump (fold veh-CL) (pERK1/2; IL, Fig S4d): 1.27 fold veh-CL and 2.10 fold veh-CL and 1.54 fold veh-CL | p-ERK in ischemic brains (pERK1/2; ZT-1a 5.0 mg/kg): no marked inhibition
